PMC9360614, “Discovery of TIGIT inhibitors based on DEL and machine learning” (Frontiers in Chemistry, 2022)

Target: T1, TIGIT/CD155 complex (Homo sapiens, UniProt Q495A1)
T1 construct: purchased 63ADK000CB07PEG
T1 sequence (Q495A1 22-141 limits assumed): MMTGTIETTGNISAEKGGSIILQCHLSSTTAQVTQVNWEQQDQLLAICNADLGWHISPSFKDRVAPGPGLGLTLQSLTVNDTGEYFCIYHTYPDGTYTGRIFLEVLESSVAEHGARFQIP
Test: HTRF TIGIT/CD155 binding assay (blocking of TIGIT/CD155 complex)
Conditions: for TIGIT binding effects compared with compound 1: derivatives with side chains R1, R2, R3 modified; for IC50: read-out: IC50, protein-protein blocking activity for TIGIT/CD155 complex
Method: Thus, the most enriched library molecule was found in the TIGIT screening and marked as potential ligand 1 (highlighted red in Figure 2A), whereas it was not observed in the bead-only control (Supplementary Figure S1B). The hit compound 1 was re-synthesized by “off-DNA” (the structure is shown in Figure 2B), and corresponding binding affinity was tested utilizing homogeneous time-resolved fluorescence (HTRF) technology.
For all compounds, the binding affinities were measured with TIGIT/CD155 Binding Assay (Immuno-Oncology, Part # 63ADK000CB07PEG) following the standard kit protocol.

Row | TIGIT binding effects compared with compound 1 | IC50 [µM] | binding affinity rank among derivatives | SMILES
1 | improved |  |  | COc1ccc(C(NC(=O)[C@H](Cc2cccc(C#N)c2)NC(=O)[C@@H](C)c2ccc3cc(OC)ccc3c2)c2ccc(OCC(=O)O)cc2)c(OC)c1 (stereo partly shown) [Compound a19]
2 | improved |  |  | COc1ccc(C(NC(=O)[C@H](Cc2ccc(F)cc2)NC(=O)[C@@H](C)c2ccc3cc(OC)ccc3c2)c2ccc(OCC(=O)O)cc2)c(OC)c1 (stereo partly shown) [Compound a18]
3 |  | 20.7 |  | COc1ccc(C(NC(=O)C(Cc2ccsc2)NC(=O)C(C)c2ccc3cc(OC)ccc3c2)c2ccc(OCC(=O)O)cc2)c(OC)c1 (stereo not shown) [Compound 1]
4 | improved |  |  | COc1ccc(C(NC(=O)[C@H](Cc2ccccc2)NC(=O)[C@@H](C)c2ccc3cc(OC)ccc3c2)c2ccc(OCC(=O)O)cc2)c(OC)c1 (stereo partly shown) [Compound a17]
5 | improved | 3.9 | highest binding affinity | COc1ccc(C(NC(=O)[C@H](Cc2ccsc2)NC(=O)/C=C/c2ccc3cc(OC)ccc3c2)c2ccc(OCC(=O)O)cc2)c(OC)c1 (stereo partly shown) [Compound a7]
6 | improved |  |  | COc1ccc(C(NC(=O)[C@H](Cc2ccsc2)NC(=O)c2ccc3cc(OC)ccc3c2)c2ccc(OCC(=O)O)cc2)c(OC)c1 (stereo partly shown) [Compound a6]
7 | improved |  |  | COc1ccc(C(NC(=O)[C@H](Cc2csc3ccccc23)NC(=O)[C@@H](C)c2ccc3cc(OC)ccc3c2)c2ccc(OCC(=O)O)cc2)c(OC)c1 (stereo partly shown) [Compound a16]
8 | improved |  |  | COc1ccc2cc([C@H](C)C(=O)N[C@@H](Cc3csc4ccccc34)C(=O)NCc3ccc(OCC(=O)O)cc3)ccc2c1 [Compound a27]
